The nature of this data set: Human HepG2 cell viability assay in 384 well format. The format is toxicity, cell-based. Also noted: dose 125 nL, time 70.5 hour; concentration not given beside the values. The conditions noted are these: HepG2 cells, read-out: Inhibition.
As for `CCOC(=O)Cn1cccc(S(=O)(=O)N2CCCC2)c1=O`, the cytotoxicity at 70.5 h was -26.6%.
The result for `O=S(=O)(NC1=NCN(CCc2cccs2)CN1)c1ccc(Cl)cc1` reads -14.8%; that for `NC(=O)C1CCN(C(=O)CCn2ccc3ccc(Br)cc32)CC1`, -33.3%; that for `CN(C(=O)Cn1nc(-c2ccc(Br)cc2)ccc1=O)C1CCS(=O)(=O)C1` (configuration not stated), -22.4%.
Then `O=C(NCCCN1CCCC1=O)c1nc(-c2ccc3[nH]ccc3c2)no1`, with -29.3%.
With `O=C(NCCN1CCCCC1)c1nc(-c2cccc3[nH]ccc23)no1`, the cytotoxicity at 70.5 h worked out at 13.5%.
Consider `CNc1oc(-c2cc(S(=O)(=O)N3CCCC3)c(C)o2)nc1C#N`, for which the cytotoxicity at 70.5 h is -25%.
The result for `COCCNC(=O)c1nc(-c2ccc3cc[nH]c3c2)no1` reads -17.1%.
The result for `CC(O)CNC(=O)CCc1nc2ncccc2[nH]1` (configuration not stated) reads -29.9%; that for `O=C(NCCCO)c1nc(-c2ccc3cc[nH]c3c2)no1`, -7.51%; that for `CC(C)CCNC(=O)C1CCN(c2ccc3nnc(C(C)C)n3n2)CC1`, -30%.
Regarding `O=C1CC(c2ccc(O)cc2)c2c(n3ccsc3nc2=O)N1` (configuration not stated), the cytotoxicity at 70.5 h is -29.2%.
On to `CC(C)n1c(=O)nc2n1C(=O)N(c1ccc(Br)cc1)C2`, for which the cytotoxicity at 70.5 h is -16.1%.
Then `Cc1oc(-c2nc(C#N)c(NC(C)C)o2)cc1S(=O)(=O)N1CCCCC1`, with -21.8%; and `CN(C(=O)Cn1nc(-c2ccccc2Cl)ccc1=O)C1CCS(=O)(=O)C1` (configuration not stated), with -18.5%; and `Cc1oc(-c2nc(C#N)c(NC3CC3)o2)cc1S(=O)(=O)N1CCCC1`, with -25.9%.
Regarding `CN1CCN(Cn2nc(-c3cccs3)ccc2=O)CC1`, the cytotoxicity at 70.5 h is -29.8%.
Consider `COc1ccc(C)cc1-c1csc(N)c1C#N`, for which the cytotoxicity at 70.5 h was determined as 13.2%.
In the case of `COc1ccc(-c2csc(N)c2C#N)cc1`, the cytotoxicity at 70.5 h was -24.3%.
The result for `O=C1C(CS(=O)(=O)Nc2ccccc2)=NC(=O)n2cccc21` reads -7.6%.
Then `CC(C)c1ccc(NS(=O)(=O)CC2=NC(=O)n3cccc3C2=O)cc1`, with -18.1%; and `O=C1C(CS(=O)(=O)Nc2ccc(Cl)cc2)=NC(=O)n2cccc21`, with -26.2%.
Then `Cc1cccc(NC2CCc3c2[nH]c(=O)n(C2CCCCC2)c3=O)c1C` (configuration not stated), with -19.3%.
Take `OCCNc1nc(Nc2ccccc2)c2nccnc2n1`: the cytotoxicity at 70.5 h is -0.149%.
Turning to `CCn1nc2ccc(S(=O)(=O)N3CCSCC3)cn2c1=O`, the cytotoxicity at 70.5 h was -9.47%.
For `Cc1cc(SCC(N)=O)nc(-c2ccc(F)cc2)n1`, the cytotoxicity at 70.5 h is -9.61%.
The result for `CC(C)(C)c1noc(-c2ccnc(-n3cnc(C(=O)O)c3)c2)n1` reads -4.5%; that for `O=C(O)c1cc(-c2ccccc2)ns1`, -20.2%.
With `CC(C)c1noc(-c2ccc(-n3cnc(C(=O)O)c3)nc2)n1`, the cytotoxicity at 70.5 h was -15.8%.
Consider `CC(C)c1noc(-c2ccnc(-n3cnc(C(=O)O)c3)c2)n1`, for which the cytotoxicity at 70.5 h is -14.7%.
Then `O=C(c1cnc2ccc(Cl)cc2c1NCc1ccco1)N1CCCCC1`, with 23.3%; and `COc1cccc(C(c2c(C)n[nH]c2O)c2c(C)n[nH]c2O)c1OC`, with -11.7%; and `CCc1c(C)n(CC(C)=O)c2nc3ccccc3n2c1=O`, with -18.1%.
Take `Cc1c(C(=O)N2CCN(c3ncccn3)CC2)n(C)c2ccc(Cl)cc12`: the cytotoxicity at 70.5 h was -7.85%.
As for `CC(=O)c1cccc(-n2nc(C(C)=O)c(C(C)=O)c2C)c1`, the cytotoxicity at 70.5 h was -2.25%.
For `CC(=O)c1nn(-c2ccccc2Cl)c(C)c1C(C)=O`, the cytotoxicity at 70.5 h is -10.3%.
As to `COC(=O)CC(c1ccc(OC)c(OC)c1OC)c1c(O)n[nH]c1C` (configuration not stated), the cytotoxicity at 70.5 h was -15.1%.
Regarding `CC(C)CC(NC(=O)Nc1ccc(F)c(Cl)c1)C(=O)O` (configuration not stated), the cytotoxicity at 70.5 h was -8.78%.
As to `CC(=O)c1nn(-c2cccc(Cl)c2)c(C)c1C(C)=O`, the cytotoxicity at 70.5 h is -12.9%.
In the case of `OCCNc1nc(NCc2cccnc2)nc2nccnc12`, the cytotoxicity at 70.5 h is 16.3%.
Turning to `COCCNc1nc(NCCc2ccccc2)nc2nccnc12`, the cytotoxicity at 70.5 h was -1.44%.
Then `COc1ccc(-c2nnsc2C(=O)N2CCN(C(C)=O)CC2)cc1`, with -12.8%; and `COc1cc(C2CC(=O)Nc3c2c(=O)[nH]n3C2CCCCC2)ccc1O` (configuration not stated), with -12.4%.
Then `Cc1nc(CC(=O)N2CCC(c3ccn4nccc4n3)CC2)cs1`, with 1.76%; and `CCC(=O)NC(Cc1cc(N(C)C)nc(C2CC2)n1)c1ccccc1` (configuration not stated), with -2.39%; and `CS(=O)(=O)N1CCc2ccc(C(=O)N3CCn4ncnc4C3)cc21`, with -1.85%.
For `Cc1cc(=O)[nH]c(NC2CCN(S(=O)(=O)c3ccccc3)CC2)n1`, the cytotoxicity at 70.5 h is -2.77%.
Then `Cc1nc2c(c(=O)[nH]1)CN(Cc1ccc3c(c1)CCCN3C)CC2`, with 1.02%.
`O[C@@H]1C[C@H]2CN(Cc3ccccc3)[C@H](Cc3ccccc3)CN2C1`: the cytotoxicity at 70.5 h is 27.4%.
Take `Cc1ccc(-c2nc(C3CCN(C(=O)c4cnn(C)c4)CC3)no2)cn1`: the cytotoxicity at 70.5 h was found to be 24.5%.
Then `Cc1nc(C)c(C(=O)N2CCc3nnc(C4CCCCN4C)n3CC2)s1` (configuration not stated), with -8.99%; and `COc1cc(CN2CCCC[C@]3(C)NC(=O)CC[C@H]23)ccc1F`, with -6.42%; and `COCCC(=O)NCc1ccc(-c2ccccc2C(=O)O)cn1`, with -6.35%.
The result for `Fc1ccc(Nc2ccc(C3CCN(Cc4ncc[nH]4)CC3)nc2)nc1` reads -4.32%; that for `O=C(c1cnco1)N1CCC(Cc2cccc3ncccc23)CC1`, 20.4%; that for `COCCC(=O)N1CCC(c2nnc(-c3ccsc3)o2)CC1`, -6.73%.
Then `Oc1cc(C2CCCCN2Cc2cccs2)nc(-c2ccncc2)n1` (configuration not stated), with -11.8%; and `Cc1ccc(-c2noc(C3CCN3C(=O)c3c(C)noc3C)n2)s1` (configuration not stated), with -3.14%; and `CC(=O)N1CCC(C(=O)N2CCC2c2nc(-c3ccc(C)s3)no2)CC1` (configuration not stated), with 9.04%.
As to `Cc1noc(C)c1C(=O)N1CCC(c2cc3cnccc3[nH]2)CC1`, the cytotoxicity at 70.5 h was -5.78%.
For the molecule `c1nc(N2CCCC2)cnc1C1CCNCC1`, the cytotoxicity at 70.5 h was -6.46%.
Then `NC(=O)c1cccc(-c2cnc(C3CCCNC3)cn2)c1` (configuration not stated), with -7.33%; and `Cc1cc(N2CCOC(c3ccccn3)C2)nc(N)n1` (configuration not stated), with -3.03%; and `Cn1ccnc1-c1nc(N2CCCCC2)ncc1-c1ccccc1F`, with -7.17%.
In the case of `NC(=O)C1(Cc2ccccc2-c2cncnc2)CCCNC1` (configuration not stated), the cytotoxicity at 70.5 h is -10.3%.
The result for `CC(CN1CCOCC1)n1cncc1-c1cnn(Cc2ccccc2)c1` (configuration not stated) reads -2.84%; that for `COc1ccc(S(=O)(=O)N2CCOC(C)(C(N)=O)C2)cc1` (configuration not stated), -3.24%; that for `O=C1CN([C@@H]2CC[C@@H](NS(=O)(=O)c3ccccc3)[C@H]2O)CCN1`, -2.13%.
Then `Cc1nccn1[C@@H]1CC[C@@H](N(C)S(=O)(=O)c2cccc(F)c2)[C@H]1O`, with -0.727%.
Take `CN(C)c1ccc(C(=O)N2CCC(c3cc4ncccc4[nH]3)CC2)cc1`: the cytotoxicity at 70.5 h was -1.4%.
The result for `O=C(Cc1ccsc1)N1CCC[C@@H]1Cn1c(=O)oc2ccccc21` reads -5.78%; that for `O=C(c1c(F)cccc1F)N1CCC[C@@H]1Cn1c(=O)oc2ccccc21`, -0.473%; that for `Cc1nc(N)cc(C2(C)CCCNC2)n1` (configuration not stated), -5.33%.
Then `c1cn(-c2nccnc2C2CCCN(C3CCOCC3)C2)cn1` (configuration not stated), with -5.56%.
The result for `CC(=O)N1CCC(c2ncc(C(=O)Nc3ccccc3)c(C)n2)CC1` reads -4.36%.
Regarding `Cn1ccc(C(=O)N2CCCC2c2cc(CCO)[nH]n2)n1` (configuration not stated), the cytotoxicity at 70.5 h is -1.26%.
Turning to `CCN(CC)S(=O)(=O)N1CCCC(c2ncc3c(n2)CCN(C)C3)C1` (configuration not stated), the cytotoxicity at 70.5 h came to 23.8%.
For the molecule `Fc1cccc(CN2CCC[C@H](Cn3nnc(-c4ccccn4)n3)C2)c1`, the cytotoxicity at 70.5 h was -4.05%.
The result for `Fc1cccc(CN2CCC[C@@H](Cn3nnc(-c4ccccn4)n3)C2)c1` reads -5.77%; that for `Fc1ccccc1CN1CCC[C@@H](Cn2nnc(-c3cccs3)n2)C1`, -3.35%.
Regarding `CC(NC(=O)C1CCCCC1)c1cc(O)nc(-c2cccnc2)n1` (configuration not stated), the cytotoxicity at 70.5 h was -4.35%.
For `CC(C)C(NC(=O)C1CC1)c1cc(O)nc(-c2cccnc2)n1` (configuration not stated), the cytotoxicity at 70.5 h is -0.322%.
Then `COc1ccc(-c2cc(C3CCCCCN3S(C)(=O)=O)on2)cc1` (configuration not stated), with -2.6%; and `C=Cn1cc(CN2CCC(c3ncc(Cl)cc3S(C)(=O)=O)CC2)c(C)n1`, with -3.31%; and `CCn1cc(CN2CCC(c3ncc(Cl)cc3S(C)(=O)=O)CC2)c(C)n1`, with 0.165%.
The result for `C=Cn1ncc(CN2CCC(c3ncc(Cl)cc3S(C)(=O)=O)CC2)c1C` reads 10%; that for `CC(C)(C)c1ccc(C(=O)NCCCNC(=O)c2cnccn2)cc1`, -3.26%; that for `COc1ccc(-c2cc3nc(CCNC(=O)C4CC4)nn3cn2)cc1`, 16.8%.
For `COCC(=O)NCCc1nc2cc(-c3ccc(OC)cc3)ncn2n1`, the cytotoxicity at 70.5 h is -5.33%.
Then `COc1ccc(-c2cc3nc(CCNC(=O)CN(C)C)nn3cn2)cc1`, with -1.8%.
The result for `CN(C)S(=O)(=O)N1CCCCCC1c1cc(-c2ccc(F)cc2)no1` (configuration not stated) reads 1.28%; that for `O=C(NC1CC1)[C@H]1CN(Cc2ccccc2)C[C@@H]1C(=O)c1ccccc1`, -3.57%.
On to `CC(CNCc1ccc(Cl)cc1)Oc1ccccn1` (configuration not stated), for which the cytotoxicity at 70.5 h is -10%.
The result for `CC(CNCc1ccc2c(c1)n(C)c(=O)n2C)Oc1ccccn1` (configuration not stated) reads -24.7%.
Then `c1cc(NCc2ccncc2)nc(C2CCCN2)c1` (configuration not stated), with 2.66%; and `COc1ccc(F)cc1-c1ccccc1CC1CNCCNC1=O` (configuration not stated), with 2.28%; and `Cc1cc(C)c2[nH]c(C)c(CC(=O)N(C)CCN(C)C)c2c1`, with 1.29%.
